Data published in ChEMBL document CHEMBL1127267, “p-Guanidinobenzoyl-[Hyp3, Thi5, D-Tic7, Oic8]bradykinin is almost completely devoid of the agonist effect of HOE140 on the endothelium-free femoral artery of sheep” (Bioorg Med Chem Lett, 1994).
Square brackets hold non-standard residues; d marks the D form. Peptide text beside a SMILES is read from it. * marks the point of attachment. Benzoyl(4-guanidino) = N=C(N)Nc1ccc(C(=O)*)cc1; Oic = O=C(O)[C@@H]1C[C@@H]2CCCC[C@@H]2N1; Hyp = O=C(O)[C@@H]1C[C@@H](O)CN1; dTic = O=C(O)[C@H]1Cc2ccccc2CN1; 2Thi = N[C@@H](Cc1cccs1)C(=O)O

Target: T1, B2 bradykinin receptor (Homo sapiens, UniProt P30411)
T1 sequence (P30411 whole entry): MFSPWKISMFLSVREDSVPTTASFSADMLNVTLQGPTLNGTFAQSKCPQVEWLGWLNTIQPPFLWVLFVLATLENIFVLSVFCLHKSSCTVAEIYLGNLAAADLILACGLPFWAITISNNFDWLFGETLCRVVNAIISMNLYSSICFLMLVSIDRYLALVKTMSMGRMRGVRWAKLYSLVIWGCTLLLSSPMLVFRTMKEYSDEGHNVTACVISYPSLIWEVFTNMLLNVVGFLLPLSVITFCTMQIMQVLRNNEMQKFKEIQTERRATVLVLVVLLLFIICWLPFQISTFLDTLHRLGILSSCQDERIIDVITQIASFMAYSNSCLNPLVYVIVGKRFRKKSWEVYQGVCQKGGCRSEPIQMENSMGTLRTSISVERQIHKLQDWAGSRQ
Test: Antagonist effect against bradykinin B2 receptor was determined in rabbit jugular vein
Type: functional, tissue-based, Oryctolagus cuniculus
Settings: target entry is the homologue from another species; read-out: pA2 (converted)

Q: Which Kb does the source give for `N=C(N)NCCC[C@H](NC(=O)[C@@H]1C[C@@H]2CCCC[C@@H]2N1C(=O)[C@H]1Cc2ccccc2CN1C(=O)[C@H](CO)NC(=O)[C@H](Cc1cccs1)NC(=O)CNC(=O)[C@@H]1C[C@@H](O)CN1C(=O)[C@@H]1CCCN1C(=O)[C@H](CCCNC(=N)N)NC(=O)c1ccc(NC(=N)N)cc1)C(=O)O` ({Benzoyl(4-guanidino)}-RP[Hyp]G[2Thi]S[dTic][Oic]R-OH) here?
A: 0.263 nM
